Assay results taken from the kinase profiling compilation of Christmann-Franck et al. (2016).
Where “and” joins values, the source holds several entries; their conditions need not be identical. Equal entries are not always repeated.

Legend:
Assay in all cases: KINOMEscan competition binding
Conditions in all cases: compound 10.0 µM
AAK1 (human) = AAK1 (human) (UniProt Q2M2I8)
AXL (human) = AXL (human) (UniProt P30530)
CAMK1G (human) = CAMK1G (human) (UniProt Q96NX5)
CAMK2A (human) = CAMK2A (human) (UniProt Q9UQM7)
Sequence of CAMK2A (human) (Q9UQM7 whole entry, looked up): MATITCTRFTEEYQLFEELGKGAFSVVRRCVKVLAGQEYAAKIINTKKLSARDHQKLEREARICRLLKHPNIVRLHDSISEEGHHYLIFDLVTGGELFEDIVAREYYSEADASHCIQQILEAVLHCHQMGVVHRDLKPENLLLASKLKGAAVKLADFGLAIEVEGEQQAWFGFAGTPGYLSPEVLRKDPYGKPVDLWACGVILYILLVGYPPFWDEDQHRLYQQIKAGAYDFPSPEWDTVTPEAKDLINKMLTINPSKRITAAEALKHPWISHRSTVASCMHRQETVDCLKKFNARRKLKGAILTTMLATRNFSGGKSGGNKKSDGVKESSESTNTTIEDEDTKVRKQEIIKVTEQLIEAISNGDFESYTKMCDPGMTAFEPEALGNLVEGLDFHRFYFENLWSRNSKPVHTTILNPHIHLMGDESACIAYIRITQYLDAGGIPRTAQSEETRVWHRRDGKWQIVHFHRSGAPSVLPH

CAMK2B (human) = CAMK2B (human) (UniProt Q13554)
CDKL2 (human) = CDKL2 (human) (UniProt Q92772)
CHEK2 (human) = CHEK2 (human) (UniProt O96017)
CIT (human) = CIT (human) (UniProt O14578)
CSK (human) = CSK (human) (UniProt P41240)
DAPK2 (human) = DAPK2 (human) (UniProt Q9UIK4)
DCLK1 (human) = DCLK1 (human) (UniProt O15075)
FGFR4 (human) = FGFR4 (human) (UniProt P22455)
Sequence of FGFR4 (human) (P22455 whole entry, looked up): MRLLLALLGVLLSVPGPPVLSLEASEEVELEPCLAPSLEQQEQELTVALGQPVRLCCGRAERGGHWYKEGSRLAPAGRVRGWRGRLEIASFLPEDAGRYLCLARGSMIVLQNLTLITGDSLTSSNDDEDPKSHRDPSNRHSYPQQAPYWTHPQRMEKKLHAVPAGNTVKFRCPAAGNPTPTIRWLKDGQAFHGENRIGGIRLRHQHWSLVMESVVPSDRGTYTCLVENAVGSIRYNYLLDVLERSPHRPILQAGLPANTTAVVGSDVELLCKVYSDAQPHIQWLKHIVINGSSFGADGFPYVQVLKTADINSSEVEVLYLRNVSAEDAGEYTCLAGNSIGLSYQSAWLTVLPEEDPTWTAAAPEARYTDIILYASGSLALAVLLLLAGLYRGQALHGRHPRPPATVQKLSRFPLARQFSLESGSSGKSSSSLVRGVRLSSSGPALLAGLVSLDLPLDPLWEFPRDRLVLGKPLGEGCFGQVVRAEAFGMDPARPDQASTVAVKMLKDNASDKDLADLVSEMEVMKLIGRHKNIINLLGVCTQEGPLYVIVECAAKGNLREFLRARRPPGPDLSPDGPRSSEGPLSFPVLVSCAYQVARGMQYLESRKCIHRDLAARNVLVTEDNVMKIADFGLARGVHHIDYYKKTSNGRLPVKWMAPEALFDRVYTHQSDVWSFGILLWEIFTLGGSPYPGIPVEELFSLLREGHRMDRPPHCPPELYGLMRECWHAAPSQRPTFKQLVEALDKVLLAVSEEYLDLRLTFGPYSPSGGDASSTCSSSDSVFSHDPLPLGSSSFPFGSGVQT

FLT3 (human) = FLT3 (human) (UniProt P36888)
GAK (human) = GAK (human) (UniProt O14976)
Sequence of GAK (human) (O14976 whole entry, looked up): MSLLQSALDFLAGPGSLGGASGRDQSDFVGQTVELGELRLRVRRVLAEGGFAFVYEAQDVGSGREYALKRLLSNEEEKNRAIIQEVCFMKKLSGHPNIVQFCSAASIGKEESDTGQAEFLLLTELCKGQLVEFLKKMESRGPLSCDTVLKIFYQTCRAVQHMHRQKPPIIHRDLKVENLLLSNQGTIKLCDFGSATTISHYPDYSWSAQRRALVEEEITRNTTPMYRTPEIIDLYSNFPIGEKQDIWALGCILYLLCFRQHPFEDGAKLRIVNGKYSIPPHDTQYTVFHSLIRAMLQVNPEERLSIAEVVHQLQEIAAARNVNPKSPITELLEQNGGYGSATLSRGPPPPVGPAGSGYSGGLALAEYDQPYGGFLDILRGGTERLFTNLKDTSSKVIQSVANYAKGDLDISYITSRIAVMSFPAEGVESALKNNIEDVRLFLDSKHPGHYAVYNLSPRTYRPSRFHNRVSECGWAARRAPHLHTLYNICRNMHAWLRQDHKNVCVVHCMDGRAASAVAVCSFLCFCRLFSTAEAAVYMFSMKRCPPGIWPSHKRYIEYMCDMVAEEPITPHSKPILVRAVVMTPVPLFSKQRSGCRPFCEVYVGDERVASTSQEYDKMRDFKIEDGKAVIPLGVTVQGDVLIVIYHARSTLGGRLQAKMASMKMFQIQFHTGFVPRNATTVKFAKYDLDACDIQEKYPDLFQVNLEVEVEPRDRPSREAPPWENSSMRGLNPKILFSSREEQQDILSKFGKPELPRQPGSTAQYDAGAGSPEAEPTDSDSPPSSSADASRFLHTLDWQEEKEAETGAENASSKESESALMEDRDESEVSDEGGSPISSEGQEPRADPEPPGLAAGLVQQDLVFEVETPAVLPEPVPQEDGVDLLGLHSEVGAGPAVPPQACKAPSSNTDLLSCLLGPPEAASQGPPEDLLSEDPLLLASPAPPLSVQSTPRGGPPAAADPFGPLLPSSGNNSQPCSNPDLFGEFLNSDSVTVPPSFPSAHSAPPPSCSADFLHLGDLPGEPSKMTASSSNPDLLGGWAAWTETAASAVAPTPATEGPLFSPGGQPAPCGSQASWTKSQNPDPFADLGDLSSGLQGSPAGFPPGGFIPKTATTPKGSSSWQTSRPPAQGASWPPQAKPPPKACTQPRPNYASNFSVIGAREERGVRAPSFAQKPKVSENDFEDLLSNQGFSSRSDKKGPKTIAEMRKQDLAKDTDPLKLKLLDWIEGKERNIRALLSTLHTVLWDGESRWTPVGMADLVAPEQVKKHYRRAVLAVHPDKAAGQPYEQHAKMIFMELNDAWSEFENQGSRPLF

GRK7 (human) = GRK7 (human) (UniProt Q8WTQ7)
GSK3B (human) = GSK3B (human) (UniProt P49841)
HIPK1 (human) = HIPK1 (human) (UniProt Q86Z02)
HIPK4 (human) = HIPK4 (human) (UniProt Q8NE63)
Sequence of HIPK4 (human) (Q8NE63 whole entry, looked up): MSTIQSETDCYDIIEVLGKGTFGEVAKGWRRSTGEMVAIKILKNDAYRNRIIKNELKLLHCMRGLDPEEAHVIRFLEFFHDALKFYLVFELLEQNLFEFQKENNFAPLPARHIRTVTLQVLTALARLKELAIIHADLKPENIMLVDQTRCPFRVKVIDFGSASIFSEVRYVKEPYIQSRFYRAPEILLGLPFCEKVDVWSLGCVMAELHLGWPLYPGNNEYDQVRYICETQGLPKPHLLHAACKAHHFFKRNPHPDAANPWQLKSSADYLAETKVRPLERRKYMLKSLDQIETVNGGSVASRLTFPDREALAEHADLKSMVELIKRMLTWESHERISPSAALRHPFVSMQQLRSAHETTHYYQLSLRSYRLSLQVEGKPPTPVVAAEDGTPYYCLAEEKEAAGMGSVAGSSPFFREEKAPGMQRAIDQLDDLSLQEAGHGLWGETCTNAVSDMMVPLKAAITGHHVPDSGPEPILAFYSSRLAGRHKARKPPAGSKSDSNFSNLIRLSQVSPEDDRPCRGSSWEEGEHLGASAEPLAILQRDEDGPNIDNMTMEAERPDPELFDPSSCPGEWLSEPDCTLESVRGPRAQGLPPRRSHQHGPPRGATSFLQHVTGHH

IKBKE (human) = IKBKE (human) (UniProt Q14164)
INSRR (human) = INSRR (human) (UniProt P14616)
[1] = target: JAK1 JH1 catalytic (human) (UniProt P23458)
[2] = target: JAK2 JH1 catalytic (human) (UniProt O60674)
LTK (human) = LTK (human) (UniProt P29376)
MAK (human) = MAK (human) (UniProt P20794)
MAP2K5 (human) = MAP2K5 (human) (UniProt Q13163)
MAP3K4 (human) = MAP3K4 (human) (UniProt Q9Y6R4)
MAPK10 (human) = MAPK10 (human) (UniProt P53779)
MAPK7 (human) = MAPK7 (human) (UniProt Q13164)
MYO3A (human) = MYO3A (human) (UniProt Q8NEV4)
NEK7 (human) = NEK7 (human) (UniProt Q8TDX7)
Sequence of NEK7 (human) (Q8TDX7 whole entry, looked up): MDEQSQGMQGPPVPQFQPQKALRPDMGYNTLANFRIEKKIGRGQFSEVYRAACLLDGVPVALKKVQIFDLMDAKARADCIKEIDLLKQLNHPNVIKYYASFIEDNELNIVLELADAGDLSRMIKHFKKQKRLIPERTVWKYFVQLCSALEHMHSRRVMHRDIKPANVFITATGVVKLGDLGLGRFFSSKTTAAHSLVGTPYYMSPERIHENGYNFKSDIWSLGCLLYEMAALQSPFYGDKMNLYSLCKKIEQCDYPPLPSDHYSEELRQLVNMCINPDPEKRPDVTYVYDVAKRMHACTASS

PKN2 (human) = PKN2 (human) (UniProt Q16513)
PLK2 (human) = PLK2 (human) (UniProt Q9NYY3)
PRKCH (human) = PRKCH (human) (UniProt P24723)
PRKG1 (human) = PRKG1 (human) (UniProt Q13976)
RPS6KA4 KD2 (human) = RPS6KA4 KD2 (human) (UniProt O75676)
RPS6KA6 KD2 (human) = RPS6KA6 KD2 (human) (UniProt Q9UK32)
SRMS (human) = SRMS (human) (UniProt Q9H3Y6)
STK4 (human) = STK4 (human) (UniProt Q13043)
Sequence of STK4 (human) (Q13043 whole entry, looked up): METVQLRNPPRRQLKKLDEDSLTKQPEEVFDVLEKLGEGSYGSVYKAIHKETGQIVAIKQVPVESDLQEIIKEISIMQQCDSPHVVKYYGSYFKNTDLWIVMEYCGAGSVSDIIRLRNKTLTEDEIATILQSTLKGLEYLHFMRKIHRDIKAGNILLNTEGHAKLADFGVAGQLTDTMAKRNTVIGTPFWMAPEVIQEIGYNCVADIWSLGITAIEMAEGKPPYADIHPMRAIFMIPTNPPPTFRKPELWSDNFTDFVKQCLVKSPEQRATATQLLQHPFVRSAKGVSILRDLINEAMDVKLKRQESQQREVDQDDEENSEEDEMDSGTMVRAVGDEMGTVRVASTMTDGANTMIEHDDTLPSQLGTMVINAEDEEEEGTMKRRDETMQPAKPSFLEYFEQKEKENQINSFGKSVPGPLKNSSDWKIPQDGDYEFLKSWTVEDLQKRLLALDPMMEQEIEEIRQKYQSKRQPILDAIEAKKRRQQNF

TEK (human) = TEK (human) (UniProt Q02763)
YSK4 (human) = YSK4 (human) (UniProt Q56UN5)

Sequence of AXL (human) (P30530 whole entry, looked up): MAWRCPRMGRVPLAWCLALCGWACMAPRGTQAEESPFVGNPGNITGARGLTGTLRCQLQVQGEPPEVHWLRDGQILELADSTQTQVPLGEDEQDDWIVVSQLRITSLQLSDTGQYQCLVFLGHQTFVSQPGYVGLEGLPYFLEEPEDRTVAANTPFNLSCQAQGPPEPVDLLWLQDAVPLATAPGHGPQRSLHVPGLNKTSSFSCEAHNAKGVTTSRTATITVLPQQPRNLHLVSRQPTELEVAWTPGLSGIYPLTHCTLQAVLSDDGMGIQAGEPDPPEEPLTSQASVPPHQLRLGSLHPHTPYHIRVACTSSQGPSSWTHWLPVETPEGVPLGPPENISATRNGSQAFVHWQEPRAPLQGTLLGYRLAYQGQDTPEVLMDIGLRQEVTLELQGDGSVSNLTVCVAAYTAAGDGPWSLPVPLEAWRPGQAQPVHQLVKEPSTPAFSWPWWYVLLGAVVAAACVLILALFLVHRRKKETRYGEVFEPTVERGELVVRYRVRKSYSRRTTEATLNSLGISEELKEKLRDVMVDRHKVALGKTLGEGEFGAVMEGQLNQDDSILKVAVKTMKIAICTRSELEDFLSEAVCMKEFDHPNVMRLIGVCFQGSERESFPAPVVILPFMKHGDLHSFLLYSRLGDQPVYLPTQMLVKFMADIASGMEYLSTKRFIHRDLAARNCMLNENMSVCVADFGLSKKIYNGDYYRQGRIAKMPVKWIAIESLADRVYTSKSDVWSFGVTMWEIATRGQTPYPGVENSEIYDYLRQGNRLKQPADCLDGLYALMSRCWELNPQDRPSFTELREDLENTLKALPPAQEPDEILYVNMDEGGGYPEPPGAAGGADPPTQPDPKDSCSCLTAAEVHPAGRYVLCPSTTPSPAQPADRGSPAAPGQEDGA

Question: For `CNC(=O)Nc1ccc(-c2nc(N3CC4CCC(C3)O4)c3cnn(C4CCC5(CC4)OCCO5)c3n2)cc1`, which kinase still bound, per cent of control (AAK1 (human)) is on record?
Answer: Its kinase still bound, per cent of control is 100%.

Question: What about the kinase still bound, per cent of control (AXL (human)) of the same molecule?
Answer: Its kinase still bound, per cent of control is 88%.

Question: What about the kinase still bound, per cent of control (CAMK1G (human)) of the same molecule?
Answer: The kinase still bound, per cent of control was 100%.

Question: What about the kinase still bound, per cent of control (CAMK2A (human)) of the same molecule?
Answer: The kinase still bound, per cent of control was 100%.

Question: What about the kinase still bound, per cent of control (CAMK2B (human)) of the same molecule?
Answer: The kinase still bound, per cent of control was 100%.

Question: And the kinase still bound, per cent of control (CDKL2 (human))?
Answer: The kinase still bound, per cent of control was 100%.

Question: What about the kinase still bound, per cent of control (CHEK2 (human)) of the same molecule?
Answer: Its kinase still bound, per cent of control is 84%.

Question: And the kinase still bound, per cent of control (CIT (human))?
Answer: Its kinase still bound, per cent of control is 100%.

Question: And the kinase still bound, per cent of control (CSK (human))?
Answer: The kinase still bound, per cent of control was 100%.

Question: And the kinase still bound, per cent of control (DAPK2 (human))?
Answer: Its kinase still bound, per cent of control is 100%.

Question: And the kinase still bound, per cent of control (DCLK1 (human))?
Answer: Its kinase still bound, per cent of control is 100%.

Question: What about the kinase still bound, per cent of control (FGFR4 (human)) of the same molecule?
Answer: The kinase still bound, per cent of control was 62%.

Question: And the kinase still bound, per cent of control (FLT3 (human))?
Answer: Its kinase still bound, per cent of control is 75% and 77%.

Question: What about the kinase still bound, per cent of control (GAK (human)) of the same molecule?
Answer: The kinase still bound, per cent of control was 75%.

Question: And the kinase still bound, per cent of control (GRK7 (human))?
Answer: The kinase still bound, per cent of control was 91%.

Question: What about the kinase still bound, per cent of control (GSK3B (human)) of the same molecule?
Answer: Its kinase still bound, per cent of control is 69%.

Question: And the kinase still bound, per cent of control (HIPK1 (human))?
Answer: Its kinase still bound, per cent of control is 100%.

Question: And the kinase still bound, per cent of control (HIPK4 (human))?
Answer: Its kinase still bound, per cent of control is 100%.

Question: What about the kinase still bound, per cent of control (IKBKE (human)) of the same molecule?
Answer: The kinase still bound, per cent of control was 100%.

Question: What about the kinase still bound, per cent of control (INSRR (human)) of the same molecule?
Answer: Its kinase still bound, per cent of control is 100%.

Question: What about the kinase still bound, per cent of control [1] of the same molecule?
Answer: Its kinase still bound, per cent of control is 82%.

Question: What about the kinase still bound, per cent of control [2] of the same molecule?
Answer: Its kinase still bound, per cent of control is 100%.

Question: And the kinase still bound, per cent of control (LTK (human))?
Answer: The kinase still bound, per cent of control was 68%.

Question: What about the kinase still bound, per cent of control (MAK (human)) of the same molecule?
Answer: Its kinase still bound, per cent of control is 100%.

Question: What about the kinase still bound, per cent of control (MAP2K5 (human)) of the same molecule?
Answer: The kinase still bound, per cent of control was 93%.

Question: And the kinase still bound, per cent of control (MAP3K4 (human))?
Answer: The kinase still bound, per cent of control was 86%.

Question: What about the kinase still bound, per cent of control (MAPK10 (human)) of the same molecule?
Answer: The kinase still bound, per cent of control was 86%.

Question: What about the kinase still bound, per cent of control (MAPK7 (human)) of the same molecule?
Answer: The kinase still bound, per cent of control was 100%.

Question: And the kinase still bound, per cent of control (MYO3A (human))?
Answer: Its kinase still bound, per cent of control is 52%.

Question: What about the kinase still bound, per cent of control (NEK7 (human)) of the same molecule?
Answer: The kinase still bound, per cent of control was 100%.

Question: What about the kinase still bound, per cent of control (PKN2 (human)) of the same molecule?
Answer: The kinase still bound, per cent of control was 83%.

Question: What about the kinase still bound, per cent of control (PLK2 (human)) of the same molecule?
Answer: The kinase still bound, per cent of control was 100%.

Question: What about the kinase still bound, per cent of control (PRKCH (human)) of the same molecule?
Answer: Its kinase still bound, per cent of control is 91%.

Question: And the kinase still bound, per cent of control (PRKG1 (human))?
Answer: The kinase still bound, per cent of control was 100%.

Question: What about the kinase still bound, per cent of control (RPS6KA4 KD2 (human)) of the same molecule?
Answer: The kinase still bound, per cent of control was 100%.

Question: What about the kinase still bound, per cent of control (RPS6KA6 KD2 (human)) of the same molecule?
Answer: The kinase still bound, per cent of control was 84%.

Question: What about the kinase still bound, per cent of control (SRMS (human)) of the same molecule?
Answer: The kinase still bound, per cent of control was 97%.

Question: And the kinase still bound, per cent of control (STK4 (human))?
Answer: The kinase still bound, per cent of control was 100%.

Question: And the kinase still bound, per cent of control (TEK (human))?
Answer: Its kinase still bound, per cent of control is 100%.

Question: And the kinase still bound, per cent of control (YSK4 (human))?
Answer: The kinase still bound, per cent of control was 100%.

Question: Which results are given for `COc1cc2ncnc(Nc3cccc(Cl)c3)c2cc1OC`?
Answer: kinase still bound, per cent of control (AAK1 (human)): 18%; kinase still bound, per cent of control (AXL (human)): 19%; kinase still bound, per cent of control (CAMK1G (human)): 64%; kinase still bound, per cent of control (CAMK2A (human)): 62%; kinase still bound, per cent of control (CAMK2B (human)): 95%; kinase still bound, per cent of control (CDKL2 (human)): 84%; kinase still bound, per cent of control (CHEK2 (human)): 6.7%; kinase still bound, per cent of control (CIT (human)): 7.4%; kinase still bound, per cent of control (CSK (human)): 62%; kinase still bound, per cent of control (DAPK2 (human)): 60%; kinase still bound, per cent of control (DCLK1 (human)): 54%; kinase still bound, per cent of control (FGFR4 (human)): 98%; kinase still bound, per cent of control (FLT3 (human)): 42% and 58%; kinase still bound, per cent of control (GAK (human)): 0%; kinase still bound, per cent of control (GRK7 (human)): 75%; kinase still bound, per cent of control (GSK3B (human)): 90%; kinase still bound, per cent of control (HIPK1 (human)): 48%; kinase still bound, per cent of control (HIPK4 (human)): 6.1%; kinase still bound, per cent of control (IKBKE (human)): 55%; kinase still bound, per cent of control (INSRR (human)): 100%; kinase still bound, per cent of control [1]: 84%; kinase still bound, per cent of control [2]: 46%; kinase still bound, per cent of control (LTK (human)): 48%; kinase still bound, per cent of control (MAK (human)): 100%; kinase still bound, per cent of control (MAP2K5 (human)): 3.5%; kinase still bound, per cent of control (MAP3K4 (human)): 83%; kinase still bound, per cent of control (MAPK10 (human)): 9.8%; kinase still bound, per cent of control (MAPK7 (human)): 100%; kinase still bound, per cent of control (MYO3A (human)): 83%; kinase still bound, per cent of control (NEK7 (human)): 88%; kinase still bound, per cent of control (PKN2 (human)): 59%; kinase still bound, per cent of control (PLK2 (human)): 44%; kinase still bound, per cent of control (PRKCH (human)): 100%; kinase still bound, per cent of control (PRKG1 (human)): 100%; kinase still bound, per cent of control (RPS6KA4 KD2 (human)): 91%; kinase still bound, per cent of control (RPS6KA6 KD2 (human)): 38%; kinase still bound, per cent of control (SRMS (human)): 60%; kinase still bound, per cent of control (STK4 (human)): 100%; kinase still bound, per cent of control (TEK (human)): 97%; kinase still bound, per cent of control (YSK4 (human)): 3.2%

Question: Which results are given for `C=CC(=O)Nc1ccc(C(=O)c2sc(Nc3ccc(N4CCN(C)CC4)cc3OC)nc2N)cc1`?
Answer: kinase still bound, per cent of control (AAK1 (human)): 11%; kinase still bound, per cent of control (AXL (human)): 100%; kinase still bound, per cent of control (CAMK1G (human)): 8.2%; kinase still bound, per cent of control (CAMK2A (human)): 1.2%; kinase still bound, per cent of control (CAMK2B (human)): 0%; kinase still bound, per cent of control (CDKL2 (human)): 86%; kinase still bound, per cent of control (CHEK2 (human)): 26%; kinase still bound, per cent of control (CIT (human)): 13%; kinase still bound, per cent of control (CSK (human)): 87%; kinase still bound, per cent of control (DAPK2 (human)): 2.8%; kinase still bound, per cent of control (DCLK1 (human)): 5.6%; kinase still bound, per cent of control (FGFR4 (human)): 26%; kinase still bound, per cent of control (FLT3 (human)): 73%; kinase still bound, per cent of control (GAK (human)): 0.8%; kinase still bound, per cent of control (GRK7 (human)): 100%; kinase still bound, per cent of control (GSK3B (human)): 100%; kinase still bound, per cent of control (HIPK1 (human)): 15%; kinase still bound, per cent of control (HIPK4 (human)): 4.6%; kinase still bound, per cent of control (IKBKE (human)): 84%; kinase still bound, per cent of control (INSRR (human)): 78%; kinase still bound, per cent of control [1]: 100%; kinase still bound, per cent of control [2]: 74%; kinase still bound, per cent of control (LTK (human)): 5.6%; kinase still bound, per cent of control (MAK (human)): 100%; kinase still bound, per cent of control (MAP2K5 (human)): 100%; kinase still bound, per cent of control (MAP3K4 (human)): 100%; kinase still bound, per cent of control (MAPK10 (human)): 6.4%; kinase still bound, per cent of control (MAPK7 (human)): 9.8%; kinase still bound, per cent of control (MYO3A (human)): 35%; kinase still bound, per cent of control (NEK7 (human)): 100%; kinase still bound, per cent of control (PKN2 (human)): 100%; kinase still bound, per cent of control (PLK2 (human)): 81%; kinase still bound, per cent of control (PRKCH (human)): 100%; kinase still bound, per cent of control (PRKG1 (human)): 74%; kinase still bound, per cent of control (RPS6KA4 KD2 (human)): 0.2%; kinase still bound, per cent of control (RPS6KA6 KD2 (human)): 0.7%; kinase still bound, per cent of control (SRMS (human)): 66%; kinase still bound, per cent of control (STK4 (human)): 100%; kinase still bound, per cent of control (TEK (human)): 89%; kinase still bound, per cent of control (YSK4 (human)): 70%
